Legend:
[1] = tested on: barnyardgrass; experiment: Test B flooded paddy test; assay type: in vivo, Echinochloa crus-galli; settings: 1000 g ai/ha, scale 0 to 100 (0 no effect, 100 complete control)
Method in brief: (§1)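 Scale 0–100: zero equals no visible effect, 100 complete control, judged by eye relative to controls. Timing: 13 to 15 days in greenhouse post-treatment. Growth stage at spraying: two leaves (paddy) or one to four leaves, 2–18 cm (postemergence).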

[2] = tested on: barnyardgrass; experiment: Test B pre-/postemergence herbicide test; assay type: in vivo, Echinochloa crus-galli; settings: for Barnyardgrass plant response rating: postemergence
Method in brief: (§2)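 Formulation: non-phytotoxic solvent mix with surfactant. Timing: preemergence on seed and postemergence on 2–18 cm plants, applied concurrently. Readout after 13–15 d greenhouse: visual 0–100 control rating against controls.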

[3] = tested on: large crabgrass; experiment: Test B pre-/postemergence herbicide test; assay type: in vivo, Digitaria sanguinalis; settings: for Crabgrass, Large plant response rating: postemergence
Method in brief: (§3)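 Greenhouse pot assay with simultaneous preemergence (treated seed) and postemergence (2–18 cm seedlings) applications of surfactant-containing, non-phytotoxic solvent formulations. Response scored visually 13–15 days later on a 0–100 scale, 100 meaning complete control.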

[4] = tested on: large crabgrass; experiment: Test A pre-/postemergence herbicide test; assay type: in vivo, Digitaria sanguinalis
Method in brief: (§4)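 Seeds sown in sandy loam received a preemergence directed soil spray of compound in non-phytotoxic solvent with surfactant; postemergence plants (2–10 cm, one- to two-leaf stage) were sprayed to runoff at the same time. After ~10 days in greenhouse, injury was rated visually versus untreated controls (0 = no effect, 100 = complete control).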

[5] = tested on: rice; experiment: Test B flooded paddy test; assay type: in vivo, Oryza sativa; settings: 1000 g ai/ha, scale 0 to 100 (0 no effect, 100 complete control)
Method in brief: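 Greenhouse test; postemergence application to plants at 1–4 leaves (2–18 cm); paddy species at 2 leaves; evaluated visually vs controls at 13–15 days; scale 0–100 (100 = complete control).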

[6] = tested on: wheat; experiment: Test B postemergence herbicide test; assay type: in vivo, Triticum aestivum; parameters: key to Wheat plant response rating: 0 = no effect, 100 = complete control; settings: postemergence
Method in brief: (§5)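 Read-out: visual comparison with controls, scored 0 to 100, where 100 means complete control and 0 no effect. Formulated chemicals were applied postemergence to plants 2–18 cm tall (1- to 4-leaf), or to flooded-paddy plants at the 2-leaf stage, then held 13 to 15 days under glass.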

[7] = tested on: giant foxtail; experiment: Test B pre-/postemergence herbicide test; assay type: in vivo, Setaria faberi; settings: for Foxtail, Giant plant response rating: postemergence
Method in brief: as §3

[8] = tested on: wild oat; experiment: Test B postemergence herbicide test; assay type: in vivo, Avena fatua; settings: postemergence
Method in brief: as §5

[9] = tested on: rice; experiment: Test B pre-/postemergence herbicide test; assay type: in vivo, Oryza sativa; settings: 0 = no effect, 100 = complete control, preemergence
Method in brief: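 Species tested were Echinochloa crus-galli, Ipomoea coccinea, Xanthium strumarium and Oryza sativa, treated both before emergence and at the 1- to 4-leaf stage; rice and barnyardgrass were also tested under flooding at 2 leaves. Greenhouse incubation lasted 13–15 days before visual 0–100 scoring.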

[10] = tested on: Surinam grass; experiment: Test B pre-/postemergence herbicide test; assay type: in vivo, Urochloa decumbens; settings: for Surinam Grass plant response rating: postemergence
Method in brief: as §3

[11] = tested on: small flower umbrella sedge; experiment: Test B flooded paddy test; assay type: in vivo, Cyperus difformis; settings: 1000 g ai/ha, scale 0 to 100 (0 no effect, 100 complete control)
Method in brief: as §1

[12] = tested on: lambsquarters; experiment: Test B pre-/postemergence herbicide test; assay type: in vivo, Chenopodium album; settings: for Lambsquarters plant response rating: postemergence
Method in brief: as §3

[13] = tested on: giant foxtail; experiment: Test A pre-/postemergence herbicide test; assay type: in vivo, Setaria faberi
Method in brief: as §4

[14] = tested on: barnyardgrass; experiment: Test A pre-/postemergence herbicide test; assay type: in vivo, Echinochloa crus-galli
Method in brief: as §4

[15] = tested on: morningglory; experiment: Test A pre-/postemergence herbicide test; assay type: in vivo, Ipomoea spp.
Method in brief: as §4

[16] = tested on: cocklebur; experiment: Test B pre-/postemergence herbicide test; assay type: in vivo, Xanthium strumarium; settings: for Cocklebur plant response rating: postemergence
Method in brief: as §2

[17] = tested on: corn; experiment: Test B pre-/postemergence herbicide test; assay type: in vivo, Zea mays; settings: for Corn plant response rating: postemergence
Method in brief: as §3

[18] = tested on: velvetleaf; experiment: Test A pre-/postemergence herbicide test; assay type: in vivo, Abutilon theophrasti
Method in brief: as §4

[19] = tested on: pigweed; experiment: Test B pre-/postemergence herbicide test; assay type: in vivo, Amaranthus retroflexus; settings: for Pigweed plant response rating: postemergence
Method in brief: as §3

[20] = tested on: velvetleaf; experiment: Test B pre-/postemergence herbicide test; assay type: in vivo, Abutilon theophrasti; settings: for Velvetleaf plant response rating: postemergence
Method in brief: as §3

[21] = tested on: blackgrass; experiment: Test B postemergence herbicide test; assay type: in vivo, Alopecurus myosuroides; settings: postemergence
Method in brief: as §1

[22] = tested on: redroot pigweed; experiment: Test A pre-/postemergence herbicide test; assay type: in vivo, Amaranthus retroflexus
Method in brief: as §4

[23] = tested on: ducksalad; experiment: Test B flooded paddy test; assay type: in vivo, Heteranthera limosa; settings: 1000 g ai/ha, scale 0 to 100 (0 no effect, 100 complete control)
Method in brief: as §1

[24] = tested on: morningglory; experiment: Test B pre-/postemergence herbicide test; assay type: in vivo, Ipomoea coccinea; settings: for Morningglory plant response rating: postemergence
Method in brief: as §2

[25] = 125 g ai/ha, 0 = no effect, 100 = complete control, preemergence
[26] = 125 g ai/ha, visual rating, scale 0 (no effect) to 100 (complete control)
[27] = 500 g ai/ha, visual rating, 0 = no effect, 100 = complete control, preemergence
[28] = 500 g ai/ha, scale 0 to 100, 0 is no effect, 100 is complete control
[29] = Postemergence, 500 g ai/ha, 0 to 100 scale, 0 no effect, 100 complete control
[30] = Postemergence, 2000 g ai/ha, 0 to 100 scale, 0 no effect, 100 complete control
[31] = Preemergence, 2000 g ai/ha, visual rating, 0 to 100 scale (0 no effect, 100 complete control)
[32] = preemergence, 500 g ai/ha, visual injury, 0 to 100 scale (0 no effect, 100 complete control)

CCNC(=O)c1cncc(NC(=O)c2cc(C(C)(C)C)nn2CC)n1 [Compound 288]
Barnyardgrass plant response rating [1]: 0 | Barnyardgrass plant response rating (0 to 100 scale) [2, 25]: 0 | Barnyardgrass plant response rating [2, 26]: 0 | Plant response rating, Barnyardgrass [2, 27]: 70 | Barnyardgrass plant response rating [2, 28]: 0 | Crabgrass, Large plant response rating (0 to 100 scale) [3, 25]: 0 | Crabgrass, Large plant response rating [3, 26]: 0 | Plant response rating, Crabgrass, Large [3, 27]: 0 | Crabgrass, Large plant response rating [3, 28]: 0 | Crabgrass, Large plant response rating [4, 29]: 0 | Plant response rating, Crabgrass, Large [4, 30]: 15 | Crabgrass, Large plant response rating [4, 31]: 10 | Crabgrass, Large plant response rating [4, 32]: 0 | Rice plant response rating [5]: 0 | Wheat plant response rating [6, 26]: 20 | Wheat plant response rating [6, 28]: 30 | Foxtail, Giant plant response rating (0 to 100 scale) [7, 25]: 0 | Foxtail, Giant plant response rating [7, 26]: 0 | Plant response rating, Foxtail, Giant [7, 27]: 10 | Foxtail, Giant plant response rating [7, 28]: 30 | Oat, Wild plant response rating [8, 26]: 20 | Oat, Wild plant response rating [8, 28]: 40 | Rice plant response rating (0 to 100 scale) ([9]; 125 g ai/ha): 0 | Plant response rating, Rice ([9]; 500 g ai/ha, visual rating): 70 | Surinam Grass plant response rating (0 to 100 scale) [10, 25]: 0 | Surinam Grass plant response rating [10, 26]: 0 | Plant response rating, Surinam Grass [10, 27]: 0 | Surinam Grass plant response rating [10, 28]: 0 | Sedge, Umbrella plant response rating [11]: 60 | Lambsquarters plant response rating (0 to 100 scale) [12, 25]: 0 | Lambsquarters plant response rating [12, 26]: 0 | Plant response rating, Lambsquarters [12, 27]: 90 | Lambsquarters plant response rating [12, 28]: 30 | Foxtail, Giant plant response rating [13, 29]: 0 | Plant response rating, Foxtail, Giant [13, 30]: 10 | Foxtail, Giant plant response rating [13, 31]: 75 | Foxtail, Giant plant response rating [13, 32]: 15 | Barnyardgrass plant response rating [14, 29]: 5 | Plant response rating, Barnyardgrass [14, 30]: 65 | Barnyardgrass plant response rating [14, 31]: 75 | Barnyardgrass plant response rating [14, 32]: 20 | Morningglory plant response rating [15, 29]: 20 | Plant response rating, Morningglory [15, 30]: 20 | Morningglory plant response rating [15, 31]: 30 | Morningglory plant response rating [15, 32]: 5 | Cocklebur plant response rating (0 to 100 scale) [16, 25]: 0 | Cocklebur plant response rating [16, 26]: 0 | Plant response rating, Cocklebur [16, 27]: 0 | Cocklebur plant response rating [16, 28]: 0 | Corn plant response rating (0 to 100 scale) [17, 25]: 0 | Corn plant response rating [17, 26]: 0 | Plant response rating, Corn [17, 27]: 0 | Corn plant response rating [17, 28]: 0 | Velvetleaf plant response rating [18, 29]: 20 | Plant response rating, Velvetleaf [18, 30]: 20 | Velvetleaf plant response rating [18, 31]: 40 | Velvetleaf plant response rating [18, 32]: 10 | Pigweed plant response rating (0 to 100 scale) [19, 25]: 0 | Pigweed plant response rating [19, 26]: 10 | Plant response rating, Pigweed [19, 27]: 90 | Pigweed plant response rating [19, 28]: 20 | Velvetleaf plant response rating [20, 26]: 10 | Plant response rating, Velvetleaf [20, 27]: 0 | Velvetleaf plant response rating [20, 28]: 20 | Blackgrass plant response rating [21, 26]: 20 | Blackgrass plant response rating [21, 28]: 20 | Pigweed plant response rating [22, 29]: 20 | Plant response rating, Pigweed [22, 30]: 40 | Pigweed plant response rating [22, 31]: 70 | Pigweed plant response rating [22, 32]: 25 | Ducksalad plant response rating [23]: 0 | Morningglory plant response rating (0 to 100 scale) [24, 25]: 0 | Morningglory plant response rating [24, 26]: 0 | Plant response rating, Morningglory [24, 27]: 0 | Morningglory plant response rating [24, 28]: 0

Source: US20060069132A1, “Azolecarboxamide herbicides” (priority 2004, published 2006)
